The source of these data is patent US11357774B2, “Use of a quinoline sulfonyl compound for treatment of inflammation, inflammatory disorders, autoimmune disorders and malaria” (priority 2019, dated 2022).

Data set [1] has as its system IL-1β, TNF-α, IL-6 and IL-8 secretion in THP-1 cells. The data set is described as follows: Cytokine secretion in LPS-stimulated THP-1 cells (ELISA). The format is cell-based, human. As to conditions: THP-1, LPS 5 μg/mL, 6 hours. Here is the method:
For comparison, BTZ (6 nM), CFZ (1 nM), and DEX (2 μM) were also included. *, **, and *** are p<0.05, p<0.01, and p<0.001, respectively, which denote a significant difference from the LPS-only group. The mean±SEM (n=3) values were determined by a Dunnett's test.
The enzyme-linked immunosorbent assay (ELISA) is a quantitative measurement based on sandwich-based enzyme linking, using a protein-specific capture antibody to determine the levels of single or multiple chemokines and cytokines.
Data shown in FIG. 11 are the results of experiments carried out to investigate VR23's effect on the levels of inflammatory cytokines. […] For comparison, BTZ (6 nM), CFZ (1 nM) and DEX (2 μM) were also included. The levels of cytokine secreted in cell culture supernatants were measured by a single-analyte ELISA. The IC50 value of VR23 is 3 μM and the concentrations of BTZ, CFZ and DEX used are their respective IC50 values.
A general note: ELISA stands for enzyme-linked immunosorbent assay.

Data set [2] relates to myeloperoxidase (MPO) activity in right lung tissues. The experiment in a line: Myeloperoxidase assay in lung tissues of mice with LPS-induced ALI. The data set is classed as in vivo, mouse. To be noted: LPS 0.4 mg/kg, 24 hours, VR23 30 mg/kg intraperitoneally. Here is the method:
Six to eight week old female BALB/c mice strain 028 (Charles River Laboratories, QC, Canada) were fed regularly with laboratory chow and water upon arrival at the Laurentian University Animal Care Facility (Sudbury, ON, Canada). To determine a useful dose of LPS, three mice per group were treated for 24 hours with the following three different conditions: (i) no LPS, (ii) 0.25 mg of LPS per kg of body weight, and (iii) 0.50 mg of LPS per kg of body weight. The different concentrations of LPS were administered intranasally to the three BALB/c mice per concentration. After the animals were sacrificed, the bronchoalveolar lavage fluid (BALF) of each mouse was collected and analyzed for LPS-induced inflammatory responses. […] Experimental design involving the use of VR23 was based on a previous acute lung injury (ALI) instillation by Wei and Huang^26. Briefly, mice were divided into 5 groups, with 3-5 mice per group: no lung injury (i.e., no treat), sham treated, LPS-only, LPS+DEX, and LPS+VR23. […] Bronchoalveolar lavage fluid was collected and the number of cells infiltrated into the bronchoalveolar fluid were counted (FIG. 2). […]
The accumulation of neutrophils in the lung tissues was analyzed with a colorimetric MPO assay kit (Sigma Aldrich), which measures the amount of myeloperoxidase activity^26. […] The MPO activity was then determined as per the protocol provided by the supplier. […]

The test system of data set [3] is human fibroblast-like synoviocytes from rheumatoid arthritis patients (HFLS-RA). The experiment in a line: Viability test, HFLS-RA cells. The data set is classed as cell-based. As to conditions: 6 hours, IL-1β 10 ng/mL, VR23 1.25-5.0 μM, HCQ 7.5-30 μM. How it is done:
The values presented are the mean±SEM (n=3).
The CCK-8 assay was used to count viable cells under the various treatment conditions. Briefly, cells were cultured in 11 columns of a 96-well clustered plate, with 5,000 cells in 100 μL of culture medium per well, excluding one column for a media-only control. The plate was incubated overnight at 37° C. in the humidified conditions, followed by treatment with test compounds diluted in the culture medium (10 μL). Each column was treated with a different condition so that each treatment could have 8 repeats. […] The absorbance was measured using an automatic plate reader (Synergy H4 Hybrid Multi-Mode Microplate Reader, BioTek, Montreal, Canada) at 450 nm wavelength. The cell viability of each treatment sample was determined by using the following equation (%)=(Abstrtmt-Absmedia)/(AbsuT-Absmedia)*100, where Abstrtmt is the absorbance value of cells with the various treatment conditions; Absmedia is the absorbance of the well containing media only; AbsuT is the absorbance of the wells with untreated cells.
This finding was extended to human cells relevant to autoimmune diseases. […] Cytokine levels in cell culture supernatants were determined by a single-analyte ELISA. […] The cytokine secretion was measured in cell culture supernatants by a single-analyte ELISA.

For the molecule `O=[N+]([O-])c1ccc(S(=O)(=O)N2CCN(c3ccnc4cc(Cl)ccc34)CC2)c([N+](=O)[O-])c1` [VR23, 7-chloro-4-(4-(2,4-dinitrophenylsulfonyl)piperazin-1-yl)quinoline], the “level of IL-6 in response to LPS” value in data set [1] was “especially effective on reducing the level of IL-6”. Moreover, the “cytokine secretion, dose dependence” value in data set [1] (VR23 0.5, 1.0, 2, 3, 4 or 6 μM) was “decreased cytokine secretion in a dose dependent manner”. Further, the “levels of inflammatory cytokines IL-1β, TNF-α, IL-6, IL-8” value in data set [1] (VR23 0.5-6 μM, BTZ 6 nM, CFZ 1 nM, DEX 2 μM) was “substantial and comparable anti-inflammatory activities”. The “myeloperoxidase (MPO) in lung tissues” value in data set [2] is listed as “strong inhibitor of MPO”. Further, the cell viability result in data set [3] is “none of the conditions examined significantly affected the viability”.
